According to patent publication US20230357179A1, “RAF KINASE INHIBITORS AND METHODS OF USE THEREOF” (Deciphera Pharmaceuticals, LLC, priority 2021, published 2023):

How the values were obtained:
B-Raf kinase = molecular target: T1, B-Raf kinase (Homo sapiens, UniProt P15056); test: Biochemical assay for B-Raf.1 (coupled pyruvate kinase/lactate dehydrogenase); conditions: read-out: BRAF.1 IC50
T1 construct: GST (N); purchased Sigma
How it was run: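 Reaction rates over the 4–5 h window of a continuous 6 h, 30 °C read were converted to percent inhibition and fitted for IC50. B-Raf (0.13 nM) phosphorylated 30.1 nM MEK with 1 mM ATP; ADP coupled via PK/LDH to NADH loss at 340 nm, 1% DMSO final.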

H2405 cells = test: H2405 cell proliferation assay (1), resazurin, 96-well; format: cell-based; conditions: Homo sapiens, NCI-H2405, inhibition of cell proliferation
Protocol: H2405 Cell Proliferation Assay (1)
(§1) H2405 cells (catalog #CRL-5944) are obtained from the American Type Culture Collect (ATTC, Manassas, VA). Briefly, cells were grown in RPMI 1640 supplemented with 5% characterized fetal bovine serum (Invitrogen, Carlsbad, CA) and 1% Penicillin/Streptomycin/L-Glutamine at 37° C., 5% CO2, and 95% humidity. Cells are expanded until reaching 70-95% confluency at which point they are subcultured or harvested for assay use. A serial dilution of test compound is dispensed into a 96-well black clear bottom plate in triplicate. Three thousand cells are added per well in 200 μL complete growth medium in the 96-well plate. Plates are incubated for 67-72 hours at 37° C., 5% CO2, and 95% humidity. At the end of the incubation, 40 μL of a 440 μM solution of resazurin (Sigma, St. Louis, MO) in PBS is added to each well of the plate and plates are incubated for an additional 5-6 hours at 37° C., 5% CO2, and 95% humidity. Plates are read on a Synergy2 or equivalent reader (Biotek, Winooski VT) using an excitation of 540 nm and an emission of 600 nm. Data is analyzed using Prism software (GraphPad, San Diego, CA) to calculate IC50 values.

WM3928 cells = test: WM3928 cell proliferation assay (1), resazurin, 96-well; format: cell-based; conditions: inhibition of cell proliferation
Protocol: WM3928 Cell Proliferation Assay (1)
WM3928 cells (#WM3928-01-0001) are obtained from Rockland Immunochemicals Inc (Gilbertsville, PA). Briefly, cells were grown in MCDB 153 medium (Sigma, #M7403, St. Louis, MO) supplemented with 20% Leibovitz's L-15 (ThermoFisher #11415-064, Waltham, MA), 2% heat inactivated fetal bovine serum (ThermoFisher, #A3840001, Waltham, MA), 5 μg/mL Insulin (Bovine Pancreas) (Sigma, #I0516, St. Louis, MO), 1.68 mM Calcium Chloride (Sigma, #C-34006, St. Louis, MO) and 1% Penicillin/Streptomycin/L-Glutamine (ThermoFisher #10378016, Waltham, MA) at 37° C., 5% CO2, and 95% humidity. Cells are expanded until reaching 70-95% confluency at which point they are subcultured or harvested for assay use. A serial dilution of test compound is dispensed into a 96-well black clear bottom plate in triplicate. Three thousand cells are added per well in 200 μL complete growth medium in the 96-well plate. Plates are incubated for 67-72 hours at 37° C., 5% CO2, and 95% humidity. At the end of the incubation, 40 μL of a 440 μM solution of resazurin (Sigma, #199303, St. Louis, MO) in PBS is added to each well of the plate and plates are incubated for an additional 6-7 hours at 37° C., 5% CO2, and 95% humidity. Plates are read on a Synergy2 or equivalent reader (Biotek, Winooski VT) using an excitation of 540 nm and an emission of 600 nm. Data is analyzed using Prism software (GraphPad, San Diego, CA) to calculate IC50 values.

Miapaca-2 cells = test: MiaPaca-2 cell proliferation assay (1), resazurin, 96-well; format: cell-based; conditions: Homo sapiens, MIA PaCa-2, inhibition of cell proliferation
Protocol: MiaPaca-2 Cell Proliferation Assay (1)
as §1, with “Miapaca-2 cells” for “H2405 cells”, “(catalog #CRL-1420)” for “(catalog #CRL-5944)”, “in DMEM” for “in RPMI 1640”, “with 10%” for “with 5%”, “Carlsbad, CA), 2.5% New Zealand sourced horse serum” for “Carlsbad, CA)”

T1 sequence (P15056 416-766): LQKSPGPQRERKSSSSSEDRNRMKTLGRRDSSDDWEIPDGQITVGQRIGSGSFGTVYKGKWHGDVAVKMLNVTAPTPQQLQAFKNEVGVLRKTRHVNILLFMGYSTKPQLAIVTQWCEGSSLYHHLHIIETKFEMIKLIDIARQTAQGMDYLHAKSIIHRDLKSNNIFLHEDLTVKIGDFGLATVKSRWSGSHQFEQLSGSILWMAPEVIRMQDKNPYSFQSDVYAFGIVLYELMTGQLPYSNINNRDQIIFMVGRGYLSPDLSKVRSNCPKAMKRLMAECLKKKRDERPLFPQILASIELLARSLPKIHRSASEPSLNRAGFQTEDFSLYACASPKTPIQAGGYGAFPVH

| IC50 (B-Raf kinase) [nM] | IC50 (H2405 cells) [nM] | IC50 (Miapaca-2 cells) [nM] | Compound | IC50 (WM3928 cells) [nM] |
| --- | --- | --- | --- | --- |
| ≤ 100 | 500 to 1000 |  | COC(=O)Nc1cc(-c2cnnc(-c3cc(NC(=O)N4CCC(CC(F)(F)F)C4)c(F)cc3C)c2)ccn1 (stereo not shown) [Example 150] | 1000 to 10000 |
| ≤ 100 | 100 to 500 | 1000 to 10000 | COC(C)(C)CCNC(=O)Nc1cc(-c2ccnc(-c3ccnc(NC(=O)C4CC4)c3)n2)c(C)cc1F [Example 108] | 100 to 500 |
| ≤ 100 | 500 to 1000 | 1000 to 10000 | Cc1cc(F)c(NC(=O)NCCC(F)F)cc1-c1cc(OCCO)nc(-c2ccnc(NC(=O)C3CC3)c2)c1 [Example 105] | 500 to 1000 |
| ≤ 100 | 100 to 500 | 1000 to 10000 | Cc1cc(F)c(NC(=O)NCC(C)C)cc1-c1cc(OCCO)nc(-c2ccnc(NC(=O)C3CC3)c2)c1 [Example 99] | 100 to 500 |
| ≤ 100 | 1000 to 10000 | 1000 to 10000 | COC(=O)Nc1cc(-c2cc(-c3cc(NC(=O)NCCC(C)(C)C)cnc3C)ccn2)ccn1 [Example 109] | 100 to 500 |
| ≤ 100 | 100 to 500 | 1000 to 10000 | Cc1ncc(NC(=O)NCCC2(C)CC2)cc1-c1ccnc(-c2ccnc(NC(=O)C3CC3)c2)n1 [Example 107] | 100 to 500 |
| ≤ 100 | 500 to 1000 | 1000 to 10000 | Cc1cc(F)c(NC(=O)NCCC(C)(C)F)cc1-c1nccc(-c2ccnc(NC(=O)C3CC3)c2)n1 [Example 114] | 500 to 1000 |
| 100 to 500 | 1000 to 10000 | 1000 to 10000 | Cc1cc(F)c(NC(=O)NC2CC3(COC3)C2)cc1-c1cc(OCCO)nc(-c2ccnc3[nH]ncc23)c1 [Example 101] | 1000 to 10000 |
| ≤ 100 | 100 to 500 | 1000 to 10000 | Cc1ncc(NC(=O)NCCC2(C)CC2)cc1-c1cc(OCCO)nc(-c2ccnc(NC(=O)C3CC3)c2)c1 [Example 113] | ≤ 100 |
| ≤ 100 | 1000 to 10000 | 1000 to 10000 | Cc1ncc(NC(=O)NC[C@H](O)C(C)(C)C)cc1-c1ccnc(-c2ccnc(NC(=O)C3CC3)c2)c1 [Example 102] | 1000 to 10000 |
| 100 to 500 | 1000 to 10000 | 1000 to 10000 | CNC(=O)c1cc(-c2cnnc(-c3cc(NC(=O)NCCC(C)(C)C)c(F)cc3C)c2)ccn1 [Example 119] | 1000 to 10000 |
| ≤ 100 | 100 to 500 |  | COC(=O)Nc1cc(-c2cc(-c3cc(NC(=O)NC4CC(C)(C)C4)cnc3C)cc(OCCO)n2)ccn1 [Example 156] | 100 to 500 |
| ≤ 100 | 100 to 500 | 1000 to 10000 | Cc1cc(F)c(NC(=O)NCCC(C)C)cc1-c1cc(OCCO)nc(-c2ccnc(NC(=O)C3CC3)c2)c1 [Example 106] | ≤ 100 |
| ≤ 100 | 1000 to 10000 | 1000 to 10000 | Cc1ncc(NC(=O)NCCC2(C)CC2)cc1-c1cc(OCCO)nc(-c2ccnc3c2CC(=O)N3)c1 [Example 112] | 1000 to 10000 |
| ≤ 100 | 100 to 500 | 1000 to 10000 | COC1(CCNC(=O)Nc2cc(-c3cccc(-c4cc(NC(=O)C5CC5)ncn4)c3)c(C)cc2F)CC1 [Example 104] | 100 to 500 |
| ≤ 100 | 500 to 1000 |  | Cc1cc(F)c(NC(=O)NCCC(C)(C)C)cc1-c1cc(N2CCOCC2)nc(N2CCOCC2)c1 [Example 10] | 100 to 500 |
| ≤ 100 | 1000 to 10000 | 1000 to 10000 | Cc1ncc(NC(=O)NCCC(C)(C)C)cc1-c1cc(-c2ccnc(NC(=O)C3CC3)c2)cnn1 [Example 120] | 1000 to 10000 |

| IC50 (B-Raf kinase) [nM] | IC50 (H2405 cells) [nM] | IC50 (Miapaca-2 cells) [nM] | Compound | IC50 (WM3928 cells) [nM] |
| --- | --- | --- | --- | --- |
| ≤ 100 | 100 to 500 |  | COC(=O)Nc1cc(-c2cc(-c3cc(NC(=O)NCCC(C)(C)F)cnc3C)cc(OCCO)n2)ccn1 [Example 165] | 1000 to 10000 |
| ≤ 100 | ≤ 100 | 1000 to 10000 | COC(=O)Nc1cc(-c2nc(OCCO)cc(-c3cc(NC(=O)NC4CC(C)(C)C4)c(F)cc3C)n2)ccn1 [Example 158] | ≤ 100 |
| ≤ 100 | 1000 to 10000 | 1000 to 10000 | Cc1cc(F)c(NC(=O)NCCC(C)(C)F)cc1-c1cccc(-c2ccnc3[nH]ncc23)c1 [Example 100] | 500 to 1000 |
| ≤ 100 | 500 to 1000 | 1000 to 10000 | COC(=O)Nc1cc(-c2cc(-c3cc(NC(=O)NCCC(C)C)c(F)cc3C)cc(OCCO)n2)ccn1 [Example 115] | ≤ 100 |
| ≤ 100 | 100 to 500 |  | COC(=O)Nc1cc(-c2cccc(-c3cc(NC(=O)NCCC4(C)CC4)cnc3C)c2)ncn1 [Example 170] | 100 to 500 |
| ≤ 100 | 100 to 500 | 1000 to 10000 | Cc1cc(F)c(NC(=O)NCCC(C)(C)C)cc1-c1cc(-c2ccnc(NC(=O)C3CC3)c2)cnn1 [Example 131] |  |
| ≤ 100 | 1000 to 10000 | 1000 to 10000 | COC(=O)Nc1cc(-c2nccc(-c3cc(NC(=O)NCCC4(OC)CC4)c(F)cc3C)n2)ccn1 [Example 146] |  |
| ≤ 100 | 500 to 1000 | 1000 to 10000 | Cc1ncc(NC(=O)NCCC2(C)CC2)cc1-c1cc(OCCO)nc(-c2ccnc(NC(=O)C3CC3)c2)n1 [Example 133] |  |
| ≤ 100 | 1000 to 10000 | 1000 to 10000 | COC(=O)Nc1cc(-c2cnnc(-c3cc(NC(=O)NCCC(C)(C)F)c(F)cc3C)c2)ccn1 [Example 141] |  |
| ≤ 100 | 100 to 500 | 1000 to 10000 | Cc1cc(F)c(NC(=O)NCCC(C)(C)F)cc1-c1cc(OCCO)nc(-c2ccnc3[nH]ncc23)c1 [Example 94] | 100 to 500 |
| ≤ 100 | 1000 to 10000 | 1000 to 10000 | COC(=O)Nc1cc(-c2cc(-c3cc(NC(=O)NCCC4(C)CC4)cnc3C)ccn2)ccn1 [Example 103] | 500 to 1000 |
| 100 to 500 | 1000 to 10000 | 1000 to 10000 | Cc1cc(F)c(NC(=O)NCCC2(C)COC2)cc1-c1cc(OCCO)nc(-c2ccnc3[nH]ncc23)c1 [Example 110] | 1000 to 10000 |
| ≤ 100 | 500 to 1000 | 1000 to 10000 | COC(=O)Nc1nccc(-c2cc(OCCO)cc(-c3cc(NC(=O)NCCC4(C)CC4)c(F)cc3C)c2)n1 [Example 122] |  |
| ≤ 100 | 500 to 1000 | 1000 to 10000 | Cc1cc(F)c(NC(=O)NCCC(C)(C)F)cc1-c1cc(OCCO)nc(-c2ccnc3[nH]ccc23)c1 [Example 97] | 100 to 500 |
| ≤ 100 | 1000 to 10000 | 1000 to 10000 | Cc1cc(F)c(NC(=O)NCC23CC(F)(C2)C3)cc1-c1cc(OCCO)nc(-c2ccnc3[nH]ncc23)c1 [Example 111] | 1000 to 10000 |
| ≤ 100 | ≤ 100 |  | COC(=O)Nc1cc(-c2nc(OCCO)cc(-c3cc(NC(=O)NCCC(C)(C)F)c(F)cc3C)n2)ccn1 [Example 161] | ≤ 100 |
